Assay results from patent US10702521B2, “Methods for treating neisseria gonorrhoeae infection with substituted 1,2-dihydro-2A,5,8A-triazaacenaphthylene-3,8-diones” (priority 2014, dated 2020).
Where a name gives a salt, the structure may show the parent alone.

System: Mycobacterium tuberculosis H37Rv
Test: Mycobacterium tuberculosis H37Rv Inhibition Assay (resazurin MIC)
Type: cell-based
Details: 144 h, H37Rv strain, six days incubation, resazurin fluorescence after 48 hours, read-out: MIC value

SMILES | MIC
O=C1CSc2ccc(CNC3CCN(CC4Cn5c(=O)ccc6ccc(=O)n4c65)CC3)cc2N1 (racemic) [Example 12, 1-[(4-{[(3-Oxo-3,4-dihydro-2H-1,4-benzothiazin-6-yl)methyl]amino}-1-piperidinyl)methyl]-1,2-dihydro-4H,9H-imidazo[1,2,3-ij]-1,8-naphthyridine-4,9-dione hydrochloride (2:1 mixture of R:S)] | < 2 µg/mL
Cl.O=c1ccc2ncc(=O)n3c2n1C[C@H]3CN1CCC(NCc2cc3c(cn2)OCCS3)CC1 [Example 19A, (2R)-2-({4-[(2,3-Dihydro[1,4]oxathiino[2,3-c]pyridin-7-ylmethyl)amino]-1-piperidinyl}methyl)-1,2-dihydro-3H,8H-2a,5,8a-triazaacenaphthylene-3,8-dione hydrochloride] | < 2 µg/mL
O=c1ccc2ccc(=O)n3c2n1C[C@H]3CN1CCC(NCc2ccc3c(c2)OCCO3)CC1 [Example 30, (1R)-1-({4-[(2,3-Dihydro-1,4-benzodioxin-6-ylmethyl)amino]-1-piperidinyl}methyl)-1,2-dihydro-4H,9H-imidazo[1,2,3-ij]-1,8-naphthyridine-4,9-dione hydrochloride] | < 2 µg/mL
O=c1ccc2ccc(=O)n3c2n1C[C@H]3CN1CCC(NCc2cc(F)c3c(c2)OCCO3)CC1 [Example 31, (1R)-1-[(4-{[(8-Fluoro-2,3-dihydro-1,4-benzodioxin-6-yl)methyl]amino}-1-piperidinyl)methyl]-1,2-dihydro-4H,9H-imidazo[1,2,3-ij]-1,8-naphthyridine-4,9-dione hydrochloride] | < 2 µg/mL

Same assay, conditions: 144 h, read-out: MIC value, H37Rv strain, six days incubation, resazurin fluorescence after 48 hours

SMILES | MIC
O=c1ccc2ccc(=O)n3c2n1C[C@H]3CN1CCC(NCc2cc3c(cn2)OCS3)CC1 [Example 5A, (1R)-1-({4-[([1,3]Oxathiolo[5,4-c]pyridin-6-ylmethyl)amino]-1-piperidinyl}methyl)-1,2-dihydro-4H,9H-imidazo[1,2,3-ij]-1,8-naphthyridine-4,9-dione hydrochloride] | < 2 µg/mL
O=c1ccc2ccc(=O)n3c2n1C[C@H]3CN1CCC(NCc2cc3c(cn2)CCCC3)CC1 [Example 7, (1R)-1-({4-[(5,6,7,8-Tetrahydro-3-isoquinolinylmethyl)amino]-1-piperidinyl}methyl)-1,2-dihydro-4H,9H-imidazo[1,2,3-ij]-1,8-naphthyridine-4,9-dione hydrochloride] | < 2 µg/mL
O=c1ccc2ccc(=O)n3c2n1C[C@H]3CN1CCC(NCc2cc3c(cn2)CCC3)CC1 [Example 8, (1R)-1-({4-[(6,7-Dihydro-5H-cyclopenta[c]pyridin-3-ylmethyl)amino]-1-piperidinyl}methyl)-1,2-dihydro-4H,9H-imidazo[1,2,3-ij]-1,8-naphthyridine-4,9-dione hydrochloride] | < 2 µg/mL
O=c1cnc2ccc(=O)n3c2n1C[C@H]3CN1CCC(NCc2cc3c(cn2)OCS3)CC1 [Example 13A, (1R)-1-({4-[([1,3]Oxathiolo[5,4-c]pyridin-6-ylmethyl)amino]-1-piperidinyl}methyl)-1,2-dihydro-3H,8H-2a,5,8a-triazaacenaphthylene-3,8-dione hydrochloride] | < 2 µg/mL
O=c1cnc2ccc(=O)n3c2n1C[C@H]3CN1CCC(NCc2cc3c(cn2)OCCS3)CC1 [Example 14, (1R)-1-({4-[(2,3-Dihydro[1,4]oxathiino[2,3-c]pyridin-7-ylmethyl)amino]-1-piperidinyl}methyl)-1,2-dihydro-3H,8H-2a,5,8a-triazaacenaphthylene-3,8-dione hydrochloride] | < 2 µg/mL
O=c1ccc2ncc(=O)n3c2n1C[C@H]3CN1CCC(NCc2cc3c(cn2)OCS3)CC1 [Example 16A, (2R)-2-({4-[([1,3]Oxathiolo[5,4-c]pyridin-6-ylmethyl)amino]-1-piperidinyl}methyl)-1,2-dihydro-3H,8H-2a,5,8a-triazaacenaphthylene-3,8-dione hydrochloride] | < 2 µg/mL
O=c1ccc2ncc(=O)n3c2n1C[C@H]3CN1CCC(NCc2ccc3nsnc3c2)CC1 [Example 25, (2R)-2-({4-[(2,1,3-Benzothiadiazol-5-ylmethyl)amino]-1-piperidinyl}methyl)-1,2-dihydro-3H,8H-2a,5,8a-triazaacenaphthylene-3,8-dione hydrochloride] | ≤ 1 µg/mL
O=c1ccc2ncc(=O)n3c2n1C[C@H]3CN1CCC(NCc2cc3c(cc2F)OCCO3)CC1 [Example 26, (2R)-2-[(4-{[(7-Fluoro-2,3-dihydro-1,4-benzodioxin-6-yl)methyl]amino}-1-piperidinyl)methyl]-1,2-dihydro-3H,8H-2a,5,8a-triazaacenaphthylene-3,8-dione hydrochloride] | ≤ 1 µg/mL

Same assay, conditions: H37Rv strain, six days incubation, resazurin fluorescence after 48 hours, read-out: MIC value

SMILES | MIC
O=c1ccc2ccc(=O)n3c2n1CC3CN1CCC(NCc2cc3c(cn2)OCCS3)CC1 (racemic) [Example 63] | < 2 µg/mL
CC1(NCc2cc3c(cn2)OCCS3)CCN(C[C@@H]2Cn3c(=O)ccc4ccc(=O)n2c43)CC1 [Example 23, (1R)-1-({4-[(2,3-Dihydro[1,4]oxathiino[2,3-c]pyridin-7-ylmethyl)amino]-4-methyl-1-piperidinyl}methyl)-1,2-dihydro-4H,9H-imidazo[1,2,3-ij]-1,8-naphthyridine-4,9-dione hydrochloride] | < 2 µg/mL
CC1(NCc2cc3c(cn2)OCS3)CCN(C[C@@H]2Cn3c(=O)ccc4ccc(=O)n2c43)CC1.Cl [Example 24, (1R)-1-({4-Methyl-4-[([1,3]oxathiolo[5,4-c]pyridin-6-ylmethyl)amino]-1-piperidinyl}methyl)-1,2-dihydro-4H,9H-imidazo[1,2,3-ij]-1,8-naphthyridine-4,9-dione hydrochloride] | < 2 µg/mL
O=c1ccc2ncc(=O)n3c2n1C[C@H]3CN1CCC(NCc2cc3c(cn2)SCO3)CC1 [Example 28, (2R)-2-({4-[([1,3]Oxathiolo[4,5-c]pyridin-6-ylmethyl)amino]-1-piperidinyl}methyl)-1,2-dihydro-3H,8H-2a,5,8a-triazaacenaphthylene-3,8-dione hydrochloride] | < 2 µg/mL
O=C1CSc2ccc(CNC3CCN(C[C@@H]4Cn5c(=O)ccc6ncc(=O)n4c65)CC3)nc2N1 [Example 29, (2R)-2-[(4-{[(3-Oxo-3,4-dihydro-2H-pyrido[3,2-b][1,4]thiazin-6-yl)methyl]amino}-1-piperidinyl)methyl]-1,2-dihydro-3H,8H-2a,5,8a-triazaacenaphthylene-3,8-dione hydrochloride] | < 2 µg/mL

Same assay, conditions: read-out: MIC value, H37Rv strain, six days incubation, resazurin fluorescence after 48 hours

SMILES | MIC
O=c1ccc2ccc(=O)n3c2n1CC3CN1CCC(NCc2cc3c(cn2)OCS3)CC1 (centres unmarked) [Example 2, 1-({4-[([1,3]Oxathiolo[5,4-c]pyridin-6-ylmethyl)amino]-1-piperidinyl}methyl)-1,2-dihydro-4H,9H-imidazo[1,2,3-ij]-1,8-naphthyridine-4,9-dione hydrochloride] | < 2 µg/mL
O=c1ccc2ccc(=O)n3c2n1C[C@H]3CN1CCC(NCc2cc3c(cn2)OCCS3)CC1 [Example 6A, (1R)-1-({4-[(2,3-Dihydro[1,4]oxathiino[2,3-c]pyridin-7-ylmethyl)amino]-1-piperidinyl}methyl)-1,2-dihydro-4H,9H-imidazo[1,2,3-ij]-1,8-naphthyridine-4,9-dione hydrochloride] | < 2 µg/mL
O=c1ccc2ncc(=O)n3c2n1CC3CN1CCC(NCc2cc3c(cn2)OCCS3)CC1 (centres unmarked) [Example 20, 2-({4-[(2,3-Dihydro[1,4]oxathiino[2,3-c]pyridin-7-ylmethyl)amino]-1-piperidinyl}methyl)-1,2-dihydro-3H,8H-2a,5,8a-triazaacenaphthylene-3,8-dione hydrochloride] | < 2 µg/mL
